Where no end group is shown, it is not given here.

Test [1] deals with inositol triphosphate (IP3) levels, downstream signaling of ADGRL1, C2C12 skeletal cell line. As to the kind of experiment: Mouse inositol triphosphate (IP3) ELISA in C2C12 cell lysates. It counts as cell-based. The conditions noted are these: TCAP-1 100 nM, after 15 minutes, p<0.0001. Here is the method: Immortalized murine skeletal cell line C2C12 cells were used for all in vitro studies. Cells were maintained at 60-70% confluency with Dulbecco’s Modified Eagle Medium (DMEM) supplemented with 20% fetal bovine serum (FBS) and penicillin/streptomycin antibiotic combination. To induce differentiation, the media was changed to DMEM supplemented with 10% horse serum and penicillin/streptomycin antibiotic combination, and cells were allowed to differentiate for 6 days (media replaced every 24 h). For treatment, cells were serum starved for 3 h and then treated with either vehicle (ddH20) or TCAP-1 (100 nM).
The protocols provided by commercial DAG and IP3 assays (MyBiosource, San Diego, California USA). Briefly, immortalized mouse C2C12 cells were prepared using the TCAP-treatment protocol described previously. Cells were added to a microELISA plate coated with purified mouse DAG or IP3 antibodies, respectively. Subsequently, 3,3′,5,5′-tetramethylbenzidine (TMB) solution was added to detect the HRP-conjugates as the colour changes. Finally, a sulphuric acid solution was added to terminate the reaction. The absorbance change was measured at a wavelength of 450 nm using a spectrophotometer (SpectraMax Plus).
Background: In an ELISA, binding on a coated surface is turned into a signal by an enzyme label.

For a further test, the system named is C2C12 myotubes. Briefly: Calcium imaging in live C2C12 cells (fluo-4). The class given is cell-based, mouse. The conditions noted are these: caffeine 4 mM, TCAP-1 100 nM pre-treatment for 1 hour. The procedure:
For live-cell fluorescence experiments, immortalized murine C2C12 skeletal muscle cells were grown and fully differentiated on Poly-D-lysine coated 25 mm round No. 1 glass coverslips (Warner Instruments, Hamden, CT, USA). Cells were grown in Dulbecco’s Modified Eagle Medium (DMEM) supplemented with 20% fetal bovine serum (FBS), 100 U/ml penicillin and 100 µg/ml streptomycin (Invitrogen, Burlington, ON, Canada), and stimulated differentiation with DMEM supplemented with 10% horse serum (HS), 100 U/ml penicillin and 100 µg/ml streptomycin (Invitrogen, Burlington, ON, Canada. Changes in intracellular calcium were assessed using the membrane-permeable calcium sensitive fluorescent indicator fluo-4, AM (Invitrogen, Burlington, ON, Canada). Cells were loaded with fluo-4 by incubating a single coverslip in DMEM containing 10 µM fluo-4 (from a 1 mM stock solution in DMSO) for 30 min (37° C.) followed by a 15 min wash in Locke’s Buffer containing (in mM): 154 mM NaCl, 4 mM NaHCOs, 5 mM KCI, 2.3 mM CaCl2, 1 mM MgCl2, 5 mM glucose and 10 mM Hepes (pH 7.4); osmolarity 305-310 mOsmol at 22° C. During loading, the acetate groups on fluo-4 are removed by intracellular esterases reducing dye leakage. In experiments assessing changes in intracellular calcium, coverslips were placed in a flow-through bath chamber (RC-40HP, Warner Instruments, Hamden, CT, USA) of an inverted microscope (Axio Observer Z1, Zeiss, Toronto, ON, Canada) equipped with a 40× oil immersion objective. Cells were continuously bulk perfused with Locke’s buffer via a gravity drip perfusion system at a rate of 2-3 ml min-1 and experiments were conducted at a room temperature (RT) of 22° C. Changes in fluo-4 fluorescence was imaged using a green fluorescent protein (GFP) filter set (Semrock, Rochester, NY, USA) and a X-Cite 120 fluorescence illumination system (Excelitas Technologies, Mississauga, ON, Canada), controlled by Volocity 4.0 imaging software (Quorum Technologies Inc., Guelph, ON, Canada). Fluorescence emissions were detected with an Orca-ER Hamamatsu B/W CCD digital camera (Hamamatsu, Middlesex, NJ, USA). Fluo-4 was excited with a wavelength of 480 nm for 100 ms every 5 sec and fluorescence emission was measured at wavelength of 516 nm. Caffeine (4 mM; Sigma Aldrich, Oakville, ON) was applied to C2C12 myotubes to stimulate calcium release from the sarcoplasmic reticulum. Cells were either pre-treated with TCAP-1 (100 nM) for 1 hour before stimulation with caffeine. Using velocity 4.0 imaging software, multiple regions of interests (ROIs) were taken from each coverslip to be analysed.

The subject of a further test is tibialis anterior muscle. As to the kind of experiment: Electrical muscle stimulation, 6-minute fatigue protocol. It counts as in vivo, Sprague-Dawley rats. The procedure:
Male adult Sprague-Dawley rats (-350 g) were used for the muscle function studies. Male adult Wistar rats (-250 g) were used for the functional positron emission tomography tests. Electrical muscle stimulation protocol was followed as described by Holwerda and Locke (2014) with minor modifications. Briefly, sixteen male adult Sprague-Dawley rats ([…]) were allowed to acclimate for 1 week on a 12:12 LD cycle. For 5 days daily, half of the rats (n=8) were treated with physiological saline control, and the other half (n=8) was treated with mouse-TCAP-1 (10 nmoles/kg) by subcutaneous injection in the interscapular region. Three days from the last treatment, animals were anesthetized with 5% isofluorane in 1 L/min O2, and subsequently positioned into testing apparatus. A 25 g needle was inserted through the soft tissue of the knee in order to ensure a stable position. The foot was placed on the lever attached to a servomotor and taped in position. Electrodes were placed below the skin but adjacent to the tibialis anterior (TA) muscle. The correct voltages for peak tetanic tension was established by increasing voltage by 1 volt increments. The test began with a single tetanus and single twitch protocol to establish baseline. The 6-min fatigue protocol (8 V, 200 Hz, 300 ms) was started. Immediately following the termination of the protocol, tetanic and twitch tensions were recorded at 0, 1, and 5 mins. Animals were immediately sacrificed after recovery measurements were recorded.

In a further test the test system is neurons. The conditions noted are these: via increases of glucose transporter GLUT-3 to the plasma membrane (unpublished); cited from earlier work.
[2] abbreviates: 10 nmoles/kg s.c. for 5 days, baseline.

Regarding “TCAP-1: 41-mer peptide from the C-terminal of teneurin-1, synthesized amidated, suspended in 0.9% saline for subcutaneous injection (QQLLGTGRVQGYDGYFVLSVEQYLELSDSANNIHFMRQSEI-NH2)”, the IP3 levels entry in test [1] is given as “significantly reduced”. Further, the “peak in cytosolic calcium on caffeine application (fluo-4 fluorescence)” value in the test on C2C12 myotubes (compared with caffeine alone) was “significantly lower peak”. Besides, in the test with C2C12 myotubes (over 5 minutes), the “decline of cytosolic calcium after the caffeine peak” value was “significantly faster decline”. Further, in the test with tibialis anterior muscle (10 nmoles/kg s.c. for 5 days), the “fatigue response curve vs vehicle” value is “responded comparably” and the “tetanic force production throughout fatigue or recovery vs vehicle” value is recorded as “responded comparably”. The “force generated in recovery after fatigue protocol” value with tibialis anterior muscle (10 nmoles/kg s.c. for 5 days, after 6-minute fatigue protocol) is given as “increased”. For the same substance, in the test with tibialis anterior muscle (setting [2]), the “contraction relaxation rate at baseline vs vehicle” value is “increased” and the “contraction velocity at baseline vs vehicle” value is listed as “significantly slower”. Besides, in the test on tibialis anterior muscle (10 nmoles/kg s.c. for 5 days, compared to vehicle, p<0.05), the “half relaxation time (1/2RT) over fatigue protocol” value is given as “sustained”. In addition, the “muscle mass vs vehicle” value with tibialis anterior muscle (10 nmoles/kg s.c. for 5 days, extracted muscles) was “no difference”. For the same substance, the “twitch peak force at pre-test (baseline) vs vehicle” value with tibialis anterior muscle (10 nmoles/kg s.c. for 5 days, tested 3 days after last injection, p<0.05) is “significantly higher”. The “rate of the contractions (max dx/dt) over fatigue protocol” value in the test with tibialis anterior muscle (10 nmoles/kg s.c. for 5 days, vehicle group steadily declined, p<0.05) was “maintained throughout the protocol”. In addition, the “fiber size vs vehicle” value in the test on tibialis anterior muscle (data not shown) is “no difference”. The “glucose uptake in neurons” value in the test on neurons was “significantly increases glucose uptake”.

The values are drawn from patent US20230256050A1, “COMPOSITIONS, METHODS AND USES COMPRISING TENEURIN C-TERMINAL ASSOCIATED PEPTIDE -1 (TCAP-1) FOR ENHANCING MUSCLE PERFORMANCE” (priority 2016, published 2023).
